From publication PMC11465068 (Journal of Lipid Research, 2024) come the findings set out here.

This experiment concerns the target T1, rhSphK1 (recombinant human sphingosine kinase 1) (Homo sapiens, UniProt Q9NYA1).
T1 construct: gene SPHK1; commercial recombinant human enzyme from two manufacturers
In words: S1P formation by LC-MS/MS. It counts as biochemical. Particulars: […] sphingosine, […] ATP, […] MgCl2, […] °C, […] h; range over two enzyme sources.

T1 sequence (Q9NYA1 whole entry): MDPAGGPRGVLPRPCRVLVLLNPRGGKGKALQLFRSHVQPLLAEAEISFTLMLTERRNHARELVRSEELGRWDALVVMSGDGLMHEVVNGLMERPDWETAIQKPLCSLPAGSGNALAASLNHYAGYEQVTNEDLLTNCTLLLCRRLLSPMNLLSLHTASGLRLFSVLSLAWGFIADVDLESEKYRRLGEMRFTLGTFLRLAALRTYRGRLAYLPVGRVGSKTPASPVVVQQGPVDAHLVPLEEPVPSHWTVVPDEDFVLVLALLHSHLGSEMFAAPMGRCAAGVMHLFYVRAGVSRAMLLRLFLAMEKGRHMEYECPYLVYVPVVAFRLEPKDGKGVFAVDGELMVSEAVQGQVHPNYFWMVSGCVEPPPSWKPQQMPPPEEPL

For `O=C(NCc1ccncc1)C12CC3CC(C1)CC(c1ccc(Cl)cc1)(C3)C2` [ABC294640], the “% reduction of S1P formation at 50 μM” value is 32-34%.
